Values quoted from earlier work in patent US20180291400A1, “METHODS AND COMPOSITIONS TO INCREASE HUMAN SOMATIC CELL NUCLEAR TRANSFER (SCNT) EFFICIENCY BY REMOVING HISTONE H3-LYSINE TRIMETHYLATION, AND DERIVATION OF HUMAN NT-ESC” (CHILDREN'S MEDICAL CENTER CORPORATION, priority 2015, published 2018).

Assays:
[1] = test system: SETDB1 H3K9me3 HMTase
[2] = target: SUV39h2 (Homo sapiens, UniProt Q9H5I1)
SUV39h2, sequence (Q9H5I1 whole entry): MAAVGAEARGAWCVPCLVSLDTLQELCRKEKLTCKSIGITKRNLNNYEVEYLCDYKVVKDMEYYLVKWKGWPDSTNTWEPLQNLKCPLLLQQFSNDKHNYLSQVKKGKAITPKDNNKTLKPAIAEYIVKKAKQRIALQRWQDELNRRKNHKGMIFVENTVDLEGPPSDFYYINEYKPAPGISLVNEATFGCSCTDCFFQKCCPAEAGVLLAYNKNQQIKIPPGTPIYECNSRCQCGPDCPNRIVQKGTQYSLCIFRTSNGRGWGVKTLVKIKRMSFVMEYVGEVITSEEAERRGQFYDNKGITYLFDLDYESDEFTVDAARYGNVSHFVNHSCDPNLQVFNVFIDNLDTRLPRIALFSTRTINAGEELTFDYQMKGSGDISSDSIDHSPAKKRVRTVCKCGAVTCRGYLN

IC50 [2] [µM] | SMILES | levels of H3K27me3 and H3K9me3 [1]
– | Nc1nccc2c1ncn2[C@@H]1C=C(CO)[C@@H](O)[C@H]1O [DZNep, 3-Deazaneplanocin A] | reduced levels of both H3K27me3 and H3K9me3
> 10 | COc1cc2c(NC3CCN(C(C)C)CC3)nc(C3CCCCC3)nc2cc1OCCCN1CCCC1 [UNC0638, 2-Cyclohexyl-N-(1-isopropylpiperidin-4-yl)-6-methoxy-7-(3-(pyrrolidin-1-yl)propoxy)quinazolin-4-amine] | –
